Results: US12509460B2 (Skyhawk Therapeutics, Inc., priority 2019, dated 2025)
pEC50: −log10 of the molar value.

Experiments:
[1] = test system: SMN FL and SMN Δ7 in spinal muscular atrophy (SMA) patient fibroblasts (GM03813, Coriell); assay: Quantitative splicing assay (SMN), qPCR; format: cell-based, human; conditions: Homo sapiens, Fibroblast, 24 h, SMA patient fibroblasts GM03813, 24 h, qPCR; read-out: SMN2 Splicing FL EC50
Experimental: Spinal muscular atrophy (SMA) patient fibroblasts (GM03813, Coriell) are plated in 96-well plates at 50,000 cells/well. […] Treated cells are lysed and cDNA synthesized using the Fast Advanced Cells-to-Ct kit (Thermofisher A35378) according to the manufacturer's instructions. 2 μL of each cDNA are used in qPCR reactions. […] Reactions are run in a Quant Studio 6 qPCR instrument with default settings.

[2] = Quantitative splicing assay (HTT), qPCR; format: cell-based, human; conditions: Homo sapiens, GM04724, 24 h, GM04724 lymphoblasts, qPCR, read-out: HTT Splicing: E49-50 EC50
Outline: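 TaqMan qPCR on cell-lysate cDNA quantifies cryptic-exon inclusion from HTT intron 49. Lymphoblasts plated at 50,000 cells/well had received compound for 24 h, 0.15 nM-2.5 uM range, 0.1% DMSO.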

[3] = test system: mHTT protein in GM04724 (CAG 70/20) Huntington's disease patient lymphoblast cells; assay: mHTT protein assay, 2B7-MW1 assay via Mesoscale Discovery (MSD); format: cell-based, human; conditions: GM04724 Huntington's disease patient lymphoblasts
Outline: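 Signal from the 2B7-MW1 antibody pair on MSD, rising with polyQ length and smaller HTT fragments, measured mHTT after 48 h compound exposure (0.6 nM–10 μM) in GM04724 cells. A parallel replicate plate gave CellTiter Glo viability.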

[4] = test system: SMN protein in spinal muscular atrophy (SMA) patient fibroblasts (GM03813, Coriell); assay: SMN protein assay, Mesoscale Discovery (MSD); format: cell-based, human; conditions: SMA patient fibroblasts GM03813, 48 hours, MSD; read-out: SMN2 protein EC50
Outline: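 Absolute SMN levels were quantified by MSD against an SMN protein standard curve (1 μg/ml to 19.5 pg/ml) run on each plate. Samples were lysates of GM03813 patient fibroblasts (7000 cells/well) treated 48 hours with compound doses from 2.5 μM down to 0.6 nM.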

MDR1 (P-gp) = assay: Blood-brain-barrier (BBB) penetration potential via MDCK-MDR1 permeability assay; conditions: dog; for Papp A→B at 120 min, 5 μM: MDCK-MDR1, pH 7.4, MDCK-MDR1: Papp A-B, A-B direction; for Papp B→A at 120 min, 5 μM: MDCK-MDR1, pH 7.4, MDCK-MDR1: Papp B-A, B-A direction
Experimental: (§1) Example A13: Assessment of Blood-Brain-Barrier (BBB) Penetration Potential Via an MDCK-MDR1 Permeability Assay
(§2) The permeability of compounds is assessed for BBB penetration potential by use of an MDCK-MDR1 assay (Catalog EA203) performed by Absorption Systems, Exton PA.
(§3) Experimental Procedure: MDR1-MDCK cell monolayers are grown to confluence on collagen-coated, microporous membranes in 12-well assay plates. The permeability assay buffer is Hanks' balanced salt solution containing 10 mM HEPES and 15 mM glucose at a pH of 7.4. The buffer in the receiver chamber also contained 1% bovine serum albumin. The dosing solution concentration is 5 μM of test article in the assay buffer. Cell monolayers are dosed on the apical side (A-to-B) or basolateral side (B-to-A) and incubated at 37° C. with 5% CO2 in a humidified incubator. Samples are taken from the donor and receiver chambers at 120 minutes. Each determination is performed in duplicate. The flux of lucifer yellow is also measured post-experimentally for each monolayer to ensure no damage is inflicted to the cell monolayers during the flux period. All samples are assayed by LC-MS/MS using electrospray ionization.
(§4) The apparent permeability (Papp) and percent recovery are calculated as follows:
(§5) Analytical Method: Liquid Chromatography. Column: Waters ACQUITY UPLC BEH Phenyl 30 ×2.1 mm, 1.7 μm; M.P. Buffer. 25 mM ammonium formate buffer, pH 3.5; Aqueous Reservoir (A): 90% water, 10% buffer, Organic Reservoir (B): 90% acetonitrile, 10% buffer, Flow Rate: 0.7 mL/minute; Gradient Program:
(§6) • Total Run Time: 1.00 minute • Autosampler. 2 μL injection volume • Wash1: water/methanol/2-propanol:1/1/1; with 0.2% formic acid • Wash2: 0.1% formic acid in water • Brain Penetration • Potential Classification: A-B Papp≥3.0 and Efflux Ratio <3.0: High • A-B Papp≥3.0 and 10≥Efflux Ratio >3.0: Moderate • A-B Papp≥3.0 and Efflux Ratio≥10: Low • A-B Papp<3.0: Low

[5] = test system: MDR1-MDCK cell monolayers; assay: as above; conditions: for MDCK-MDR1: % Recov A-B: A-B direction; for MDCK-MDR1: % Recov B-A: B-A direction
Experimental: as §1, §2, §3, §4, §5, §6

MDR1 = assay: as above; conditions: dog, MDCK-MDR1, pH 7.4, MDCK-MDR1: Efflux, efflux ratio
Experimental: as §1, §2, §3, §4, §5, §6

| Structure (SMILES) | pEC50 [1] | pEC50 [2] | pEC50 [3] | pEC50 [4] | Papp A→B at 120 min, 5 μM (MDR1 (P-gp)) | Papp B→A at 120 min, 5 μM (MDR1 (P-gp)) | MDCK-MDR1: % Recov A-B [5] | MDCK-MDR1: % Recov B-A [5] | efflux ratio at 120 min, 5 μM (MDR1) |
| --- | --- | --- | --- | --- | --- | --- | --- | --- | --- |
| CN(c1ccc(-c2ccc(-n3nccn3)cc2O)nn1)[C@@H]1C[C@H]2CCC[C@H](N2)[C@@H]1F [Compound 5A, 2-(6-(((1S,2S,3R,5R)-2-fluoro-9-azabicyclo[3.3.1]nonan-3-yl)(methyl)amino)pyridazin-3-yl)-5-(2H-1,2,3-triazol-2-yl)phenol] | 7.30 to 7.80 | 7.82 to 11.00 | 7.82 to 11.00 | 7.82 to 11.00 | 4.85 ×10⁻⁶ cm/s | 20.1 ×10⁻⁶ cm/s | 29% | 58% | 4 |
| C#Cc1ccc(-c2ccc(N(C)[C@@H]3C[C@H]4CC[C@H](N4)[C@@H]3F)nn2)c(O)c1 [Compound 10A, 5-ethynyl-2-(6-(((1S,2S,3R,5R)-2-fluoro-8-azabicyclo[3.2.1]octan-3-yl)(methyl)amino)pyridazin-3-yl)phenol] | 7.82 to 11.00 | 7.82 to 11.00 | 7.82 to 11.00 | 7.82 to 11.00 | 11.6 ×10⁻⁶ cm/s | 19 ×10⁻⁶ cm/s | 55% | 67% | 2 |
| C#Cc1ccc(-c2ccc(N(C)[C@H]3C[C@@H]4CC[C@@H](N4)[C@H]3F)nn2)c(O)c1 [Compound 10B, 5-ethynyl-2-(6-(((1R,2R,3S,5S)-2-fluoro-8-azabicyclo[3.2.1]octan-3-yl)(methyl)amino)pyridazin-3-yl)phenol] | 7.00 to 7.29 | 7.00 to 7.29 | 7.00 to 7.29 | 7.82 to 11.00 | 11.2 ×10⁻⁶ cm/s | 21.2 ×10⁻⁶ cm/s | 52% | 82% | 2 |
| CN(c1ccc(-c2ccc(-n3ccnc3)cc2O)nn1)[C@H]1C[C@@H]2CCC[C@@H](N2)[C@H]1F [Compound 11B, 2-(6-(((1R,2R,3S,5S)-2-fluoro-9-azabicyclo[3.3.1]nonan-3-yl)(methyl)amino)pyridazin-3-yl)-5-(1H-imidazol-1-yl)phenol] | 7.82 to 11.00 | 7.82 to 11.00 | 7.82 to 11.00 | 7.30 to 7.80 | 2.4 ×10⁻⁶ cm/s | 55 ×10⁻⁶ cm/s | 77% | 89% | 23 |
| CCN(c1ccc(-c2ccc(-c3cn[nH]c3)cc2O)nn1)[C@@H]1C[C@H]2CC[C@H](N2)[C@@H]1F [Compound 12A, 2-(6-(ethyl((1S,2S,3R,5R)-2-fluoro-8-azabicyclo[3.2.1]octan-3-yl)amino)pyridazin-3-yl)-5-(1H-pyrazol-4-yl)phenol] | 6.30 to 7.00 | 7.00 to 7.29 | 7.30 to 7.80 | 7.30 to 7.80 | 0.89 ×10⁻⁶ cm/s | 23.6 ×10⁻⁶ cm/s | 72% | 74% | 27 |
| CCN(c1ccc(-c2ccc(-c3cn[nH]c3)cc2O)nn1)[C@H]1C[C@@H]2CC[C@@H](N2)[C@H]1F [Compound 12B, 2-(6-(ethyl((1R,2R,3S,5S)-2-fluoro-8-azabicyclo[3.2.1]octan-3-yl)amino)pyridazin-3-yl)-5-(1H-pyrazol-4-yl)phenol] | 7.82 to 11.00 | 7.82 to 11.00 | 7.82 to 11.00 | 7.82 to 11.00 | 0.7 ×10⁻⁶ cm/s | 30.1 ×10⁻⁶ cm/s | 57% | 52% | 43 |
| CN(c1ccc(-c2ccc(-c3cnn(C)c3)cc2O)nn1)[C@@H]1C[C@H]2CCC[C@H](N2)[C@H]1F [Compound 14A, 2-(6-(((1S,2R,3R,5R)-2-fluoro-9-azabicyclo[3.3.1]nonan-3-yl)(methyl)amino)pyridazin-3-yl)-5-(1-methyl-1H-pyrazol-4-yl)phenol] | 7.00 to 7.29 | 7.30 to 7.80 | 7.30 to 7.80 | 7.82 to 11.00 | 3 ×10⁻⁶ cm/s | 42.4 ×10⁻⁶ cm/s | 59% | 83% | 14 |
| CN(c1ccc(-c2ccc(-c3cnn(C)c3)cc2O)nn1)[C@H]1C[C@@H]2CCC[C@@H](N2)[C@@H]1F [Compound 14B, 2-(6-(((1R,2S,3S,5S)-2-fluoro-9-azabicyclo[3.3.1]nonan-3-yl)(methyl)amino)pyridazin-3-yl)-5-(1-methyl-1H-pyrazol-4-yl)phenol] | 7.00 to 7.29 | 7.82 to 11.00 | 7.82 to 11.00 | 7.82 to 11.00 | 2.95 ×10⁻⁶ cm/s | 32.1 ×10⁻⁶ cm/s | 54% | 91% | 11 |
| Cc1cnc(-c2ccc(-c3ccc(N(C)[C@@H]4C[C@H]5CCC[C@H](N5)[C@@H]4F)nn3)c(O)c2)o1 [Compound 16A, 2-(6-(((1S,2S,3R,5R)-2-fluoro-9-azabicyclo[3.3.1]nonan-3-yl)(methyl)amino)pyridazin-3-yl)-5-(5-methyloxazol-2-yl)phenol] | 6.30 to 7.00 | 7.30 to 7.80 | 7.30 to 7.80 | 6.30 to 7.00 | 2.31 ×10⁻⁶ cm/s | 15.2 ×10⁻⁶ cm/s | 31% | 41% | 7 |
| Cc1cnc(-c2ccc(-c3ccc(N(C)[C@H]4C[C@@H]5CCC[C@@H](N5)[C@H]4F)nn3)c(O)c2)o1 [Compound 16B, 2-(6-(((1R,2R,3S,5S)-2-fluoro-9-azabicyclo[3.3.1]nonan-3-yl)(methyl)amino)pyridazin-3-yl)-5-(5-methyloxazol-2-yl)phenol] | 7.30 to 7.80 | 7.82 to 11.00 | 7.30 to 7.80 | 7.82 to 11.00 | 1.16 ×10⁻⁶ cm/s | 18.7 ×10⁻⁶ cm/s | 24% | 26% | 16 |
| CN(c1ccc(-c2cc(F)c(-c3ccoc(=O)c3)cc2O)nn1)[C@@H]1C[C@H]2CC[C@H](N2)[C@@H]1F [Compound 17A, 4-(2-fluoro-4-(6-(((1S,2S,3R,5R)-2-fluoro-8-azabicyclo[3.2.1]octan-3-yl)(methyl)amino)pyridazin-3-yl)-5-hydroxyphenyl)-2H-pyran-2-one] | 7.82 to 11.00 | 7.82 to 11.00 | 7.82 to 11.00 | 7.82 to 11.00 | 2.08 ×10⁻⁶ cm/s | 39.2 ×10⁻⁶ cm/s | 57% | 81% | 19 |
